Tests used:
Vα24+ NKT cells = assay: Stimulation of Vα24+ NKT cell proliferation, autologous mixed leukocyte reaction with treated antigen-presenting cells; type: cell-based, human; conditions: antigen-presenting cells treated with 100 ng/ml, FIG. 9
Experimental: Peripheral blood mononuclear cells of a normal human were cultured for 4 days in an AIM medium supplemented with 10% FCS with the addition of GM-CSF (400 U/ml), IL-4 (200 U/ml) and KRN 7000 (100 ng/ml) to prepare antigen-presenting cells.
An autologous mixed leukocyte reaction (MLR) was performed using these antigen-presenting cells as stimulator cells and autologous peripheral blood mononuclear cells as responder cells. After incubation for 10 days, IL-2 (5 U/ml) was added, incubation was continued for another 4 days, and the cells were harvested. Next, CD4, CD8 double negative cells were recovered from these harvested cells and subjected to the phenotype analysis. The phenotypic analysis was expressed by fluorescence intensity of labeled antibodies against cells having various phenotypes.
The cells were cultured using IL-2 (5 U/ml) to stimulate the proliferation of Vα24^+ NKT cells, which were used as responder cells in the following autologous mixed leukocyte reaction. Autologous peripheral blood mononuclear cells were cultured for 4 days with the addition of GM-CSF +IL-4 and 100 ng/ml of KRN 7000, AGL-583 (β-galactosylceramide, β-GalCer) or 0.1% DMSO (vehicle) to prepare antigen-presenting cells. An autologous mixed leukocyte reaction was carried out using these antigen-presenting cells as stimulator cells. […]

NOD/ShiJic (NOD) mice = assay: Suppression of spontaneous diabetes onset in NOD mice; type: in vivo, mouse; conditions: 100 μg/kg i.p. twice a week from 7 weeks of age; control 80%, FIG. 7
Experimental: Ten animals per group of NOD/ShiJic (NOD) mice (6-week-old, females) (Japan Clea, Inc.) were used for the following experiment. […] The animals were divided into two groups, i.e., one group to which 100 μg/kg of KRN 7000 were intraperitoneally administered twice a week starting from 7-weeks of age, and an untreated control group. The presence and absence of diabetic symptoms was examined every week. The blood glucose level was measured using a glucometer (Miles Sankyo), and mice showing the value of more than 200 mg/dL twice consecutively were diagnosed to be diabetic.

[1] = test system: C57BL/6 mice with MOG-induced EAE; assay: Suppression of the onset of experimental autoimmune encephalomyelitis (EAE); type: in vivo, mouse; conditions: 20 μg/kg i.p. on days 1, 5, 8, 12 and 15, FIG. 6B
Experimental: […]. Mice were immunized by subcutaneously injecting this emulsion on day 0 and day 7. Further, 500 ng of pertussis toxin were intraperitoneally administered on day 1 and […] induce experimental autoimmune encephalomyelitis (EAE) in mice. The animals were divided into 2 groups, i.e., a group to which 20 μg/kg of KRN 7000 were intraperitoneally administered on days 1, 5, 8, 12 and 15 and a group to which a vehicle (0.5%, Polysolvate 20) was administered in a similar manner. The level of EAE symptoms was observed every day.

MRL lpr/lpr mice = assay: Survival period of MRL lpr/lpr mice; type: in vivo, mouse; conditions: 100 μg/kg i.p. twice a week from the age of 5 weeks, 10 animals per group; all vehicle mice died within 250 days, FIG. 4
Experimental: Ten animals per group of female MRL lpr/lpr mice were used for the following experiment. MLR mice purchased at the age of 4 weeks were randomly divided into 2 groups (10 animals per group). A vehicle (a physiological saline solution containing 0.025% Polysolvate 20) or KRN 7000 (100 μg/kg) was intraperitoneally administered twice a week (on Tuesday and Friday) to the animals starting from the age of 5 weeks. Survival of the animals was observed every day.

Vα14+ NKT cells = assay: Stimulation of spleen NKT cell proliferation in C57BL/6 mice (3-color FACS analysis); type: in vivo, mouse
Experimental: A vehicle (physiological saline solution containing 0.5% Polysolvate 20) or 1, 10 or 100 ng/kg of KRN 7000 was intravenously administered to C57BL/6 mice (Japan SLC, Inc.), and the spleen of individual mice was taken out after 24 hours to prepare spleen cells by conventional methods. These spleen cells were incubated in a plastic dish for 30 minutes to prepare nonadherent cells. By removing B cells in this nonadherent cells, a lymphocyte fraction was prepared. T cells, NK cells, NKT cells and Vα14^+ NKT cells in this fraction were analyzed by the 3-color FACS analysis using the FITC-labeled anti-TCR αβ monoclonal antibody (Pharmingen), cychrome-labeled anti-NK1.1 monoclonal antibody (Pharmingen) and PE-labeled anti-Vα14 monoclonal antibody (FIG. 2). The anti-Vα14 monoclonal antibody was obtained by implanting anti-Vα14 monoclonal antibody producing hybridomas (CMS-1; available from Masaru Taniguchi et al, School of Medicine, Chiba University) in nude mice and recovering ascites from the animals to purify the antibody. In FIGS. 2A and 2B, the numbers of NK1.1 cells, TCRαβ cells and […] in the lymphocyte fraction were expressed as fluorescence intensity of the labeled antibodies against these cells.

[2] = spleen, i.v., 24 hours, FIG. 2C

CCCCCCCCCCCCCCCCCCCCCCCCCC(=O)N[C@@H](CO[C@H]1O[C@H](CO)[C@H](O)[C@H](O)[C@H]1O)[C@H](O)[C@H](O)CCCCCCCCCCCCCC [KRN 7000, (2S,3S,4R)-1-(α-D-galactopyranosyloxy)-2-hexacosanoylamino-3,4-octadecanediol]
effect of treated antigen presenting cells on Vα24+ NKT cell proliferation ([3H]thymidine uptake) (Vα24+ NKT cells): marked stimulative effect
mice that became diabetic at the age of 35 weeks (NOD/ShiJic (NOD) mice): none
mice that died of EAE ([1]; 10 mice, vehicle: 80% died): 2
mice showing the EAE onset ([1]; vehicle: all mice): 4 out of 10
mice surviving at 350 days after the start of the administration (MRL lpr/lpr mice): three mice
rate of NK1.1+ TCRαβ cells in the spleen lymphocyte fraction vs vehicle (Vα14+ NKT cells; 100 ng/kg i.v., 24 hours, FIG. 2A): marked increase
rate of Vβ14+ cells in NK1.1+ TCRβα+ cells vs vehicle (Vα14+ NKT cells; 100 ng/kg i.v., 24 hours, FIG. 2B): increase
numbers of NK cells in the spleen lymphocyte fractions (Vα14+ NKT cells; 10 or 100 ng/kg i.v., 24 hours, FIG. 2C): equal to those from the vehicle-administered mice
increase in numbers of Vα14+ NKT cells in the spleen lymphocyte fraction vs vehicle (Vα14+ NKT cells; i.v., 24 hours, FIG. 2C): more than four times
increase in numbers of Vα14− NKT cells in the spleen lymphocyte fraction vs vehicle (Vα14+ NKT cells; i.v., 24 hours, data not shown): more than three times
numbers of Vα14+ cells in the liver (Vα14+ NKT cells; liver, data not shown): marked increase
numbers of Vα14− NKT cells in the liver (Vα14+ NKT cells; liver, data not shown): marked increase
increase in the numbers of T cells vs vehicle-administered mice (Vα14+ NKT cells; [2]): about 2 fold
increase in the numbers of lymphocyte fractions vs vehicle-administered mice (Vα14+ NKT cells; [2]): about 2 fold
